For 2 compounds, IC50 and half-life results are on record in patent publication US20260217652A1, “PHENYL-SUBSTITUTED HETEROARYL COMPOUND AND PHARMACEUTICAL COMPOSITION COMPRISING SAME, PREPARATION METHOD THEREFOR AND USE THEREOF” (SHANGHAI MEIYUE BIOTECH DEVELOPMENT CO., LTD., priority 2023, published 2026).

pIC50: −log10 of the molar value.

The target in data set [1] is T1, p38 MAPK/MK2 (Homo sapiens, UniProt Q16539).
T1 construct: purchased Carna (p38α); Abcam (MK2) 04-152; 79910
The data set can be described thus: In vitro activity assay of p38 MAPK/MK2 (Z-LYTE kinase assay kit). The format is biochemical. The conditions noted are these: active p38α, inactive MK2, Ser/Thr 4; 1-hour reaction at 20° C. Summed up:
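FRET-based Z-LYTE assay; compound tested from […] top concentration, 5-fold serial dilution, 8 points, duplicate wells, 1% DMSO. Kinase reaction 1 h at 20° C, then development reagent 1 h at room temperature; fluorescence read at Ex 400/Em 445 and 520 nm. IC50 from concentration-effect curve fit.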

Data set [2] addresses T2, p38 MAPK/MK5 (Homo sapiens, UniProt Q16539).
T2 construct: purchased Carna (p38α); Abcam (MK5) 04-152; 217826
Kind of data set: In vitro activity assay of p38 MAPK/MK5 (Z-LYTE kinase assay kit). It counts as biochemical. The conditions noted are these: active p38α, inactive MK5, Ser/Thr 4; 4-hour reaction at 20° C. As for the experimental part:
The inhibitory effect of the compound on p38 MAPK/MK5 was evaluated using the Z-LYTE kinase assay kit (Thermo, PV3177). The test compound was dissolved in DMSO to obtain a 10 mM stock solution and stored at −20° C. for future use. The initial concentration of the compound was […], with 1% DMSO, 5-fold serial dilution, 8 concentrations, and duplicate wells. […] After a 4-hour reaction at 20° C., Development Reagent A diluted 2048-fold was added to each well, followed by incubation at room temperature for 1 hour. The reaction was terminated by adding 5 µL of stop buffer, and the plate was read using a microplate reader (Ex. 400 nm, Em. 445 nm; Ex. 400 nm, Em. 520 nm). The concentration-effect curve was fitted using GraphPad Prism 8 software, and the compound concentration resulting in 50% inhibition, IC50, was calculated.

Data set [3] deals with T3, p38 MAPK/ATF2 (Homo sapiens, UniProt Q16539).
T3 construct: purchased Carna Biosciences (p38α); Sino Biological (ATF2) 04-152; 11599-H20B
Kind of data set: In vitro activity assay of p38 MAPK/ATF2 (HTRF). It counts as biochemical. The conditions noted are these: p38α, Human ATF2 Protein, ATP; 35 min at 20° C. As for the experimental part: The inhibitory effect of the compound on p38a-catalyzed ATF2 was evaluated by the HTRF method. The test compound was dissolved in DMSO to obtain a 10 mM stock solution and stored at −20° C. for future use. The initial concentration of the compound was 10 μM, with 0.25% DMSO, 5-fold serial dilution, 8 concentrations, and duplicate wells. The reaction buffer, consisting of 40 mM Tris pH 7.5, 20 mM MgCl2, 0.1 mg/mL BSA, and 50 μM DTT, was used to prepare 3.5×p38α (MAPK14, Carna Biosciences, 04-152) protein working solution, 3.5×Human ATF2 Protein (Sino Biological, 11599-H20B) working solution, and 3.5×ATP working solution. The reaction was terminated with 10 mM EDTA. The final 14 μL reaction system was performed in a 96-well plate (cisbio, 66PL96025), containing 0.29 ng/μL p38a, […] Human ATF2 Protein, and 25 µM ATP. After reacting at 20° C. for 35 min, the pre-prepared antibody solution (cibio, 63ADK015PEG, Phospho-ATF2 Eu Cryptate antibody, Phospho-ATF2 d2 antibody, diluted 40-fold with Detection buffer) was added to each well and incubated overnight at room temperature. The samples were then measured using a microplate reader (HTRF compatible reader). The concentration-effect curve was fitted using GraphPad Prism 8 software, and the compound concentration resulting in 50% inhibition, IC50, was calculated.
For orientation: TR-FRET usually uses a lanthanide donor and a delayed reading to cut background.

The subject of data set [4] is TNF-α in human PBMC cells. Kind of data set: In vitro TNF-α activity assay in human PBMC cell supernatant (LPS, ELISA). It counts as cell-based. The conditions noted are these: Homo sapiens, PBMC, 24 h, LPS 100 ng/mL, read-out: p38 MAPK/TNF-α IC50. The protocol: The inhibitory effect of the compound on TNF-α in the supernatant of human PBMC cells was evaluated using an ELISA detection kit (Beyotime, PI518). The test compound was dissolved in DMSO to obtain a 10 mM stock solution and stored at −20° C. for future use. The initial concentration of the compound was […], followed by 5-fold serial dilution to obtain 6 concentrations. Cells were plated in duplicate, and ELISA was performed in single wells. The final concentration of DMSO was 0.4%. Alternatively, the initial concentration of the compound, dilution factor, number of concentration gradients, and replicates could be adjusted based on the specific screening conditions.
Fresh human peripheral blood mononuclear cells (PBMCs) (Sailybio) were seeded at a density of 2×10^5 cells per well in a 96-well plate (Corning, 3599), with each well containing 100 μL of RPMI-1640 (Gibco #A1049101)+10% FBS (Gibco, 10099141C), and incubated overnight at 37° C. under 5% CO2. Test compounds were added to the 96-well culture plate at a volume of 25 μL per well. After 1 hour, 5 μL of LPS was added to achieve a final concentration of 100 ng/mL. No LPS and compound were added to the negative control wells, and no compound was added to the positive control wells. The mixture was further incubated for 24 hours at 37° C. under 5% CO2. Subsequently, the cell culture supernatant was collected by centrifugation at 500 rcf for 8 minutes. The concentration of TNF-α was measured according to the operation manual of the ELISA kit. The concentration-effect curve was fitted using GraphPad Prism 8 software, and the compound concentration resulting in 50% inhibition, IC50, was calculated.

Data set [5] can be described thus: In vitro liver microsome stability, mouse. It counts as in vitro ADME. The conditions noted are these: liver microsomes, 0.5 mg/mL microsomes, 1 μM compound, NADPH, 37° C., read-out: Mouse liver microsomes Half-life T1/2. The protocol:
(§1) The reference compound used in this experiment was Ketanserin, and the final concentration of microsomes in the experimental system was 0.5 mg/mL. The PBS buffer was a 50 mM K2HPO4 buffer. The concentration of the test compound was 1 μM. The microsomes were added to PBS, and the control/test compounds were respectively added to the corresponding reaction systems, mixed thoroughly, and pre-incubated in a 37° C. water bath for 5 minutes. The reaction was initiated by adding 20 mM NADPH solution under 37° C. water bath conditions (for the No NADPH samples, an equal volume of PBS solution was used as a substitute for the 20 mM NADPH solution). At the reaction time points of 0 min, 10 min, 30 mun, 60 min, and 90 min, 30 μL of reaction samples were taken from each reaction system (for the No NADPH samples, sampling was performed at 0 min and 90 min), and the reaction was immediately terminated by adding 300 μL of the internal standard acetonitrile solution. After centrifugation at 4000 rpm, the supernatant was taken and mixed thoroughly with an equal volume of pure water. The samples at each time point were analyzed by LC-MS/MS (AB Triple Quard 5500) to determine the compound content, and the T1/2 was calculated.
For orientation: Microsomes from liver hold many membrane-bound enzymes, among them those of drug oxidation.

Data set [6] is described as follows: In vitro liver microsome stability, rat. The format is in vitro ADME. Conditions: liver microsomes, 0.5 mg/mL microsomes, 1 μM compound, NADPH, 37° C., read-out: Rat liver microsomes Half-life T1/2. As for the experimental part: as §1
A short description of data set [7]: In vitro liver microsome stability, human. It counts as in vitro ADME. The conditions noted are these: liver microsomes, 0.5 mg/mL microsomes, 1 μM compound, NADPH, 37° C., read-out: Human liver microsomes Half-life T1/2. The protocol:
as §1

T2 sequence (Q16539 whole entry): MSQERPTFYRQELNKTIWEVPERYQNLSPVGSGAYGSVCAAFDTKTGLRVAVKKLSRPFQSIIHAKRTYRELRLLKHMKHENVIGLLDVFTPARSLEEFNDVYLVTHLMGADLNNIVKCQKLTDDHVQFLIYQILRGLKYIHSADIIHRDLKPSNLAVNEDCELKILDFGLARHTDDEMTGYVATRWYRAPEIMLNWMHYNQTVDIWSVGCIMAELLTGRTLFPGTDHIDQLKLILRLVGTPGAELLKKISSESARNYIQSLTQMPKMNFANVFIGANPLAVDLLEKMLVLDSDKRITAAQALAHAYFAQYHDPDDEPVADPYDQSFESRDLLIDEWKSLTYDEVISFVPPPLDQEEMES
T1 sequence (Q16539 whole entry): as above
T1 sequence (P49137 whole entry partner): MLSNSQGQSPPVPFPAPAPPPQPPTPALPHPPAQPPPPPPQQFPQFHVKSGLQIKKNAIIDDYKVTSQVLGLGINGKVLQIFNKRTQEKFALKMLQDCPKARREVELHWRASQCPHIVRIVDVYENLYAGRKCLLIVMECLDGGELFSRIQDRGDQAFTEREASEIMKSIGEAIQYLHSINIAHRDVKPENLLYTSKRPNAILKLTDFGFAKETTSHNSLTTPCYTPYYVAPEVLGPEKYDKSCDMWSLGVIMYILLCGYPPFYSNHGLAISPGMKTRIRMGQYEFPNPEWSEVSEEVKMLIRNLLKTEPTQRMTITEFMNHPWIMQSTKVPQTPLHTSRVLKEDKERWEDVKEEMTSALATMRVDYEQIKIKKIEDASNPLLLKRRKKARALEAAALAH

As for `CNC(=O)c1cccc(-c2cc(-n3c(C)cc(OCc4ncc(F)cc4F)c(Cl)c3=O)c(C)cn2)c1` [Compound 2], the pIC50 in data set [1] was 7.20; in data set [2], 5.52; in data set [3] it was 4.99; in data set [4] it was 7.05. For the same compound, the half-life at 1 μM in data set [5] worked out at 3.96 h; in data set [6] it was 4.17 h; in data set [7] it was 4.14 h.
Take `Cc1cnc(-c2ccc(F)c([C@@](C)(O)CO)c2F)cc1-n1c(C)cc(OCc2ncc(F)cc2F)c(Cl)c1=O` (single isomer, unassigned) [Compound 65-P4]: the pIC50 in data set [1] is 9.23; in data set [2] it was less than 4.70; in data set [3], 5.34; in data set [4] it was 8.35. Besides, the half-life at 1 μM in data set [5], in data set [6] and in data set [7] was more than 4.66 h throughout.
